From PubChem BioAssay (NCI) come the findings set out here.

Test systems include T-47D breast; MCF7 breast; DLD-1 colon; MDA-N; LXFL 529 NSCLC; DMS 114 small cell lung; SNB-78 CNS.
What all share (assay): inhibition of tumour cell growth, NCI panel, 48 h

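Briefly, cells in 96-well plates were exposed to five compound concentrations for 48 h, and endpoints were estimated by linear interpolation. GI50 is the concentration that inhibits growth by half. The concentration for full growth arrest is given as TGI.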 Some results are limits rather than exact numbers.

Take `COc1ccc2c(c1)sc1nc(-c3ccccc3)c(-c3ccc(O)c(OC)c3)n12`: the GI50 with T-47D breast was 83.1 µM; in the assay on MCF7 breast it was 28.6 µM. For the same molecule, the TGI in the assay on T-47D breast and in the assay with MCF7 breast was greater than 100 µM each time.

On to `CN(C)C(=O)c1cc2cnc(Nc3ccc(-c4csc5c(=O)cc(N6CCNCC6)oc45)cc3)nc2n1C1CCCC1`, for which, in the assay on T-47D breast, the GI50 was 0.949 µM and the TGI came to 9.5 µM. In the assay on MCF7 breast, the GI50 is 0.294 µM and the TGI is 1.57 µM.

On to `Cc1cc2c3ccccc3ccc2[n+]2ccccc12`, for which, in the assay with T-47D breast, the GI50 is 1.86 µM and the TGI is 6.8 µM. Moreover, in the assay on MCF7 breast, the GI50 is 2.35 µM and the TGI is greater than 38.8 µM.

For the molecule `CC1(O)CC2(O)C=CC3=C(C(=O)c4cccc(O)c4C3=O)C2(O)C(=O)C1O` (stereo unspecified), the TGI was 2.31 µM in the assay on DLD-1 colon; 3.51 µM in the assay with T-47D breast; 3.24 µM in the assay on MDA-N; 1.08 µM in the assay with LXFL 529 NSCLC; 2.6 µM in the assay with MCF7 breast; 3.44 µM in the assay with DMS 114 small cell lung.

Turning to `COC(=O)c1ccc2c(c1)C(=O)c1c-2n(CCCN)c(=O)c2cc([N+](=O)[O-])ccc12`, in the assay with T-47D breast, the GI50 is less than 0.0173 µM and the TGI amounted to 1.34 µM. Moreover, in the assay on MCF7 breast, the GI50 was less than 0.01 µM and the TGI worked out at 0.214 µM.

Regarding `O=C(OCC1OC(OC(=O)c2cc(O)c(O)c(OC(=O)c3cc(O)c(O)c(O)c3)c2)C(OC(=O)c2cc(O)c(O)c(OC(=O)c3cc(O)c(O)c(O)c3)c2)C(OC(=O)c2cc(O)c(O)c(OC(=O)c3cc(O)c(O)c(O)c3)c2)C1OC(=O)c1cc(O)c(O)c(OC(=O)c2cc(O)c(O)c(O)c2)c1)c1cc(O)c(O)c(OC(=O)c2cc(O)c(O)c(O)c2)c1` (stereo unspecified), the GI50 in the assay on T-47D breast is 13 µM; with MCF7 breast, 13.2 µM. The TGI is greater than 50 µM in the assay on T-47D breast and 34.7 µM in the assay on MCF7 breast.

On to `CC(=O)OC1CCC2(C)C(CCC3C4CC=C(C(C)=O)C4(C)OC(=O)CC32)C1` (stereo unspecified), for which, in the assay with T-47D breast, the GI50 is 1.64 µM and the TGI is 3.4 µM. In addition, in the assay on MCF7 breast, the GI50 was 1.4 µM and the TGI amounted to 3.01 µM.

With `NCCCC1NC(=O)/C(=C(O)/C=C/C2CCC[C@@H]2CC2SCCS2)C1=O` (stereo partly specified), the TGI in the assay with DLD-1 colon, in the assay on LXFL 529 NSCLC and in the assay with DMS 114 small cell lung was greater than 100 µM each time.

Turning to `C=CC(=O)N1CCC([C@@H]2CCNc3c(C(N)=O)c(-c4ccc(Oc5ccccc5)cc4)nn32)CC1`, in the assay on T-47D breast, the GI50 was 3.49 µM and the TGI is greater than 87.1 µM. In addition, in the assay with MCF7 breast, the GI50 is 23.1 µM and the TGI is greater than 100 µM.

In the case of `C#C[C@@]1(O)[C@@H](CO)O[C@@H](n2ccc3c(N)ncnc32)[C@@H]1O`, in the assay on T-47D breast, the GI50 is 0.445 µM and the TGI is 2.14 µM. Besides, in the assay with MCF7 breast, the GI50 is 0.239 µM and the TGI came to 5.67 µM.

Turning to `COc1ccc(/C=C/C(=O)c2ccc3cc(OC)c(OC)cc3c2)cc1OC`, in the assay with T-47D breast, the GI50 is 2.93 µM and the TGI turned out to be 33.5 µM. Also, in the assay on MCF7 breast, the GI50 is 2.69 µM and the TGI turned out to be 12.1 µM.

`O=C(Nc1ccccc1)NS(=O)(=O)c1ccc(N2N=C3c4ccccc4CC3C2c2ccccn2)cc1` (stereo unspecified): the values for the GI50 in the assay with T-47D breast and with MCF7 breast were 93 µM and 27 µM, respectively. Besides, the TGI in the assay on T-47D breast and in the assay with MCF7 breast was greater than 100 µM throughout.

For `Nc1ccc2c(c1)CC1c3ccccc3C(C2)c2ccccc21`, the TGI in the assay with DLD-1 colon, in the assay on SNB-78 CNS, in the assay with LXFL 529 NSCLC and in the assay on DMS 114 small cell lung was greater than 100 µM throughout.

Turning to `O=c1oc2ccc(Cl)cc2c(=O)n1-c1cc(C(F)(F)F)cc(C(F)(F)F)c1`, in the assay with T-47D breast, the GI50 was 0.229 µM and the TGI amounted to 2.4 µM. For the same molecule, in the assay with MCF7 breast, the GI50 is 0.278 µM and the TGI came out at 13.5 µM.

As to `CC[N+]1(C)CCC(O)(c2ccccc2)C(C(=O)c2ccccc2)C1` (stereo unspecified), the TGI was determined as 27.2 µM with DLD-1 colon; 39.7 µM in the assay with T-47D breast; 23.6 µM in the assay with LXFL 529 NSCLC; 9.6 µM with MCF7 breast; 44.3 µM with DMS 114 small cell lung.

As for `Cc1ccc2c(Nc3cccc(Cl)c3F)ncc(NC(=O)c3csc4c(N)ncnc34)c2c1`, in the assay on T-47D breast, the GI50 is greater than 100 µM and the TGI was greater than 100 µM. Besides, in the assay on MCF7 breast, the GI50 is greater than 100 µM and the TGI is greater than 100 µM.

With `CCOC(=O)c1ccc(Nc2sc(C(=O)c3cccc([N+](=O)[O-])c3)c(N)c2C#N)cc1`, in the assay with T-47D breast, the GI50 was 0.141 µM and the TGI is greater than 68.5 µM. In addition, in the assay with MCF7 breast, the GI50 is 0.102 µM and the TGI is 13.2 µM.

As to `COc1cc2ccnc3c2c(c1OC)-c1ccc(=O)ccc1-3`, in the assay with T-47D breast, the GI50 was 27.6 µM and the TGI was determined as 65.5 µM. Moreover, in the assay with MCF7 breast, the GI50 is 14.9 µM and the TGI was greater than 100 µM.

For `Nc1ccn(C2CC(O)C(CO)O2)c(=O)n1` (stereo unspecified), in the assay with T-47D breast, the GI50 is greater than 5000 µM and the TGI was greater than 5000 µM. Further, in the assay on MCF7 breast, the GI50 was greater than 5000 µM and the TGI was greater than 5000 µM.

Regarding `CC1(C)N=C(N)N=C(N)N1c1cccc(CCCCc2ccccc2)c1`, in the assay on T-47D breast, the GI50 is 1.28 µM and the TGI was found to be 16.2 µM. In the assay on MCF7 breast, the GI50 is 0.312 µM and the TGI was 10.2 µM.

Consider `O=C1c2cc3c(cc2[C@@H]2[C@H]1c1ccc([N+](=O)[O-])cc1C(=O)N2CCCCl)OCO3`, for which the GI50 in the assay with T-47D breast is greater than 100 µM; in the assay on MCF7 breast, less than 0.01 µM. Also, in the assay with T-47D breast, the TGI was greater than 100 µM.

`C/C1=C\C/C=C(\C)[C@H]2CC(CC/C(C)=C/CC1)[C@@](C)(CO)O2`: in the assay on T-47D breast, the GI50 was greater than 100 µM and the TGI is greater than 100 µM. Besides, in the assay on MCF7 breast, the GI50 was 26.7 µM and the TGI was determined as 77.7 µM.

Regarding `CC[C@H](C)[C@H](NC(=O)Nc1ccccc1)C(=O)N(C)[C@H](C[C@@H](OC(C)=O)c1nc(C(=O)N[C@@H](Cc2ccccc2)C[C@H](C)C(=O)OC)cs1)C(C)C`, in the assay on MCF7 breast, the GI50 was 1.27 µM and the TGI was greater than 100 µM.
